{"source": "paper PMC10441178", "about": "“Antibiofilm assay for antimicrobial peptides combating the sulfate‐reducing bacteria Desulfovibrio vulgaris” (MicrobiologyOpen, 2023)", "key": {"[1]": {"tested_on": "Desulfovibrio vulgaris biofilm", "format": "cell-based, Desulfovibrio vulgaris DSM 644", "conditions": "6 h preincubation, then peptide (1 mg/mL to 1.95 µg/mL, twofold dilution), further 66 h, 37°C anaerobic; polished steel rivets; consistent for OD600 and OD570 (crystal violet); n = 3 per concentration", "procedure": "D. vulgaris DSM 644 was cultivated in Postgate medium (DSMZ medium 63) with a modification of 0.004 g/L FeSO4 × 7H2O and 0.3 g/L trisodium citrate. The medium was flushed with nitrogen gas. Incubation was performed at 37°C without shaking. Steel […]660 4 × 15 mm (Würth-Gruppe) served as the growth surface. These were applied in the following pretreated stages: (1) mechanically untreated; (2) roughened: two turns with silicon carbide sandpaper with a grit size of 180; (3) polished: two turns with silicon carbide sandpaper with a sequential grit size of 320, 400, 600, 800, and 1200. The steel […] cleaned in acetone, 2-propanol, and ethanol (Carl Roth GmbH & Co. KG) for 5 min each using an ultrasonic bath, frequency 47 KHz (Branson Ultrasonic Corporation). […] Routine measurements of OD600 and OD570 were performed using the InfiniteM[…] plate reader (Tecan Group AG). For measurements in the anaerobic chamber, OD600 was measured with a Stratus microplate reader (Cerillo Inc.). […] Figure 2 Minimum biofilm inhibitory concentration (MBIC) assay for Desulfovibrio vulgaris: OD600 and OD570 of the challenge plate (72 h incubation) for different concentrations of four antimicrobial peptides: […]-33, Bactenecin, […]1 (black striped), and uninhibited sample (gray); mean and standard deviation were determined by propagation of error; asterisks indicate significant reduction (p = 0.005)."}, "[2]": {"tested_on": "Desulfovibrio vulgaris biofilm", "format": "cell-based, Desulfovibrio vulgaris DSM 644", "procedure": "D. vulgaris DSM 644 was cultivated in Postgate medium (DSMZ medium 63) with a modification of 0.004 g/L FeSO4 × 7H2O and 0.3 g/L trisodium citrate. The medium was flushed with nitrogen gas. Incubation was performed at 37°C without shaking. The preparation of the MBEC assay was similar to the MBIC. A measure of 120 μL of bacterial suspension was added per well as growth check (n = 8) or as AMP test (n = 6 per AMP concentration) and 120 μL of medium as sterile control (n = 8). The microtiter plate was incubated for 72 h. Afterward, the […] transferred to the challenge plate consisting of 120 μL of AMP solution (1 mg/mL to 1.95 μg/mL), 120 μL of medium for growth check (n = 8), 120 μL of medium (n = 4) or 120 μL of water (n = 2) or 120 μL of AMP with a concentration of 1 mg/mL (n = 2) for sterile control (in Figure A3, a pipetting scheme is shown). Incubation was performed for 24 h. The […] washed with 0.9% NaCl and half of them were stained with crystal violet (see MBIC). The other half was transferred to the recovery plate containing 120 μL of medium per well and placed in the ultrasonic bath for 30 min. The […] removed and the microtiter plate was incubated for 48 h. After the incubation period of 48 h, OD600 was measured. An overview of the individual steps of the MBIC/MBEC assay is shown in Figure 1.  Figure 5 Minimum biofilm eradication concentration (MBEC) assay for Desulfovibrio vulgaris: OD600 of the recovery plate (48 h incubation) and OD570 of the challenge plate (72 h incubation) for different concentrations of four antimicrobial peptides: […]-33, Bactenecin, […]1 (black striped), and uninhibited sample (gray); mean and standard deviation were determined by error propagation; asterisk indicates significant reduction (p = 0.005)."}, "in vitro": {"assay": "in vitro", "format": "in vitro ADME", "conditions": "cells or culture medium", "procedure": "Figure 4 Long-term stability for the peptide […]1 in Postgate C medium (black) and in the supernatant of a 7-day-old culture of Desulfovibrio vulgaris (gray), analyzed with reversed-phase high-performance liquid chromatography; 100% peptide content corresponds with the peptide content at 0 h. Values are shown as means with standard deviation, n = 3."}}, "note": "Ends that are not written are not given here. Peptide text beside a SMILES is read from it.", "data": [{"compound": "CC[C@H](C)[C@H](NC(=O)[C@H](CCCNC(=N)N)NC(=O)[C@H](CS)NC(=O)[C@H](CC(C)C)NC(=O)[C@@H](N)CCCNC(=N)N)C(=O)N[C@H](C(=O)N[C@H](C(=O)N[C@H](C(=O)N[C@@H](CCCNC(=N)N)C(=O)N[C@H](C(=O)N[C@@H](CS)C(=O)N[C@@H](CCCNC(=N)N)C(=O)O)C(C)C)[C@@H](C)CC)C(C)C)C(C)C", "note": "[Bactenecin] (H-RLCRIVVIRVCR-OH; N-terminus and C-terminus assumed)", "values": [{"measurement": "MBIC95%", "setting": "[1]", "value": "no biofilm inhibitory effects"}, {"measurement": "Lowest peptide concentration with complete removal of the biofilm (total biofilm mass, OD570)", "setting": "[2]; 72 h biofilm on steel rivets, challenge with peptide, crystal violet staining, OD570", "value": 500, "unit": "µg/mL"}, {"measurement": "Effect on OD600 of recovery plate below the MBEC95%", "setting": "[2]; peptide concentrations 250 and 125 µg/mL", "value": "partial effect"}, {"measurement": "Removal of total biofilm mass (OD570) at lower concentrations", "setting": "[2]; peptide concentrations 250 and 125 µg/mL, crystal violet, OD570", "value": "partial removal"}]}, {"compound": "FFGKVLKLIRKIF [DASamP1]", "values": [{"measurement": "remaining at 168 h", "setting": "in vitro", "value": 70, "unit": "%"}, {"measurement": "remaining at 504 h", "setting": "in vitro", "value": 56, "unit": "%"}]}]}
